Consider 17 compounds from US11267825B2 (AICURIS GMBH & CO. KG, priority 2017, dated 2022).

For orientation: EC50 means the concentration needed to bring the measured effect to its halfway point. In general, IC50 refers to the concentration that gives 50% inhibition.

One assay concerns HBV. In words: Determination of HBV DNA from the supernatants of HepAD38 cells (anti-HBV activity). The format is cell-based, hepatitis B virus. The following applies: Hepatitis B virus, 144 h; HBV DNA in HepAD38 supernatant at day 6; read-out: Cell Activity (EC50). The procedure:
Determination of HBV DNA from the Supernatants of HepAD38 Cells
The anti-HBV activity was analysed in the stable transfected cell line HepAD38, which has been described to secrete high levels of HBV virion particles (Ladner et al., 1997). In brief, HepAD38 cells were cultured at 37° C. at 5% CO2 and 95% humidity in 200 μl maintenance medium, which was Dulbecco's modified Eagle's medium/Nutrient Mixture F-12 (Gibco, Karlsruhe), 10% fetal bovine serum (PAN Biotech Aidenbach) supplemented with 50 μg/ml penicillin/streptomycin (Gibco, Karlsruhe), 2 mM L-glutamine (PAN Biotech, Aidenbach), 400 μg/ml G418 (AppliChem, Darmstadt) and 0.3 μg/ml tetracycline. Cells were subcultured once a week in a 1:5 ratio, but were usually not passaged more than ten times. For the assay 60,000 cells were seeded in maintenance medium without any tetracycline into each well of a 96-well plate and treated with serial half-log dilutions of test compound. To minimize edge effects the outer 36 wells of the plate were not used but were filled with assay medium. On each assay plate six wells for the virus control (untreated HepAD38 cells) and six wells for the cell control (HepAD38 cells treated with 0.3 μg/ml tetracycline) were allocated, respectively. In addition, one plate set with reference inhibitors like BAY 41-4109, entecavir, and lamivudine instead of screening compounds were prepared in each experiment. In general, experiments were performed thrice in triplicates. At day 6 HBV DNA from 100 μl filtrated cell culture supernatant (AcroPrep Advance 96 Filter Plate, […] Supor membran, PALL GmbH, Dreieich) was automatically purified on the MagNa Pure LC instrument using the MagNA Pure 96 DNA and Viral NA Small Volume Kit (Roche Diagnostics, Mannheim) according to the instructions of the manufacturer. EC50 values were calculated from relative copy numbers of HBV DNA. In brief, 5 μl of the 100 μl eluate containing HBV DNA were subjected to PCR LC480 Probes Master Kit (Roche) together with 1 μM antisense primer […], 0.5 μM sense primer […], 0.3 μM hybprobes […]-FL and LC640-[…]-PH (TIBMolBiol, Berlin) to a final volume of 12.5 μl. The PCR was performed on the Light Cycler 480 real time system (Roche Diagnostics, Mannheim) using the following protocol: Pre-incubation for 1 min at 95° C., amplification: 40 cycles×(10 sec at 95° C., 50 sec at 60° C., 1 sec at 70° C.), cooling for 10 sec at 40° C. Viral load was quantitated against known standards using HBV plasmid DNA of pCH-9/3091 (Nassal et al., 1990, Cell 63: 1357-1363) and the LightCycler 480 SW 1.5 software (Roche Diagnostics, Mannheim) and EC50 values were calculated using non-linear regression with GraphPad Prism 6 (GraphPad Software Inc., La Jolla, USA).

The target in the next assay is HBV core protein (UniProt P03146). The format is biochemical. The following applies: read-out: Assembly Activity (IC50); BODIPY-FL labelled core protein, assembly started with NaCl, read after 6 min. The procedure:
Biochemical Capsid Assembly Assay
The screening for assembly effector activity was done based on a fluorescence quenching assay published by Zlotnick et al. (2007). The C-terminal truncated core protein containing 149 amino acids of the N-terminal assembly domain was fused to a unique cysteine residue at position 150 and was expressed in E. coli using the pET expression system (Merck Chemicals, Darmstadt). Purification of core dimer protein was performed using a sequence of size exclusion chromatography steps. In brief, the cell pellet from 1 L BL21 (DE3) Rosetta2 culture expressing the coding sequence of core protein cloned NdeI/XhoI into expression plasmid pET21b was treated for 1 h on ice with a native lysis buffer (Qproteome Bacterial Protein Prep Kit; Qiagen, Hilden). After a centrifugation step the supernatant was precipitated during 2 h stirring on ice with 0.23 g/ml of solid ammonium sulfate. Following further centrifugation the resulting pellet was resolved in buffer A (100 mM Tris, pH 7.5; 100 mM NaCl; 2 mM DTT) and was subsequently loaded onto a buffer A equilibrated CaptoCore 700 column (GE HealthCare, Frankfurt). The column flow through containing the assembled HBV capsid was dialyzed against buffer N (50 mM NaHCO3 pH 9.6; 5 mM DTT) before urea was added to a final concentration of 3M to dissociate the capsid into core dimers for 1.5 h on ice. The protein solution was then loaded onto a 1 L Sephacryl S300 column. After elution with buffer N core dimer containing fractions were identified by SDS-PAGE and subsequently pooled and dialyzed against 50 mM HEPES pH 7.5; 5 mM DTT. To improve the assembly capacity of the purified core dimers a second round of assembly and disassembly starting with the addition of 5 M NaCl and including the size exclusion chromatography steps described above was performed. From the last chromatography step core dimer containing fractions were pooled and stored in aliquots at concentrations between 1.5 to 2.0 mg/ml at −80° C.
Immediately before labelling the core protein was reduced by adding freshly prepared DTT in a final concentration of 20 mM. After 40 min incubation on ice storage buffer and DTT was removed using a Sephadex G-25 column (GE HealthCare, Frankfurt) and 50 mM HEPES, pH 7.5. For labelling 1.6 mg/ml core protein was incubated at 4° C. and darkness overnight with BODIPY-FL maleimide (Invitrogen, Karlsruhe) in a final concentration of 1 mM. After labelling the free dye was removed by an additional desalting step using a Sephadex G-25 column. Labelled core dimers were stored in aliquots at 4° C. In the dimeric state the fluorescence signal of the labelled core protein is high and is quenched during the assembly of the core dimers to high molecular capsid structures. The screening assay was performed in black 384 well microtiter plates in a total assay volume of 10 μl using 50 mM HEPES pH 7.5 and 1.0 to 2.0 μM labelled core protein. Each screening compound was added in 8 different concentrations using a 0.5 log-unit serial dilution starting at a final concentration of 100 μM, 31.6 μM or 10 μM. In any case the DMSO concentration over the entire microtiter plate was 0.5%. The assembly reaction was started by the injection of NaCl to a final concentration of […] which induces the assembly process to approximately 25% of the maximal quenched signal. 6 min after starting the reaction the fluorescence signal was measured using a Clariostar plate reader (BMG Labtech, Ortenberg) with an excitation of 477 nm and an emission of 525 nm. As 100% and 0% assembly control HEPES buffer containing 2.5 M and 0 M NaCl was used. Experiments were performed thrice in triplicates. EC50 values were calculated by non-linear regression analysis using the Graph Pad Prism 6 software (GraphPad Software, La Jolla, USA).

Sequence of HBV core protein (P03146 whole entry, looked up): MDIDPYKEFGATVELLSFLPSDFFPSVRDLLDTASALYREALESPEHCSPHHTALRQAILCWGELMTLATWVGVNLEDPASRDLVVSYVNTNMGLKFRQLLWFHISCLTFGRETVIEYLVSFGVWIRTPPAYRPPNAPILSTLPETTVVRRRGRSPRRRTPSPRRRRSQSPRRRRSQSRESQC

Consider `O=C(c1cc2ccccc2[nH]1)N1CCc2nc(NC3CC(CO)(CO)C3)sc2C1` [Example 42, [1-(hydroxymethyl)-3-{[5-(1H-indole-2-carbonyl)-4H,5H,6H,7H-[1,3]thiazolo[5,4-c]pyridin-2-yl]amino}cyclobutyl]methanol], for which the EC50 in the assay with HBV is under 1000 nM. The IC50 on HBV core protein is under 5000 nM.

Regarding `O=C(CC(F)(F)F)Nc1nc2c(s1)CN(C(=O)c1cc3ccccc3[nH]1)CC2` [Example 61, 3,3,3-trifluoro-N-[5-(1H-indole-2-carbonyl)-4H,5H,6H,7H-[1,3]thiazolo[5,4-c]pyridin-2-yl]propanamide], the EC50 in the assay on HBV was under 1000 nM. The IC50 at HBV core protein is 5000 to 10000 nM.

On to `CC(C)(CC(=O)Nc1nc2c(s1)CN(C(=O)c1cc3ccccc3[nH]1)CC2)C1CC1` [Example 261, 3-cyclopropyl-N-[5-(1H-indole-2-carbonyl)-4H,5H,6H,7H-[1,3]thiazolo[5,4-c]pyridin-2-yl]-3-methylbutanamide], for which the EC50 in the assay with HBV was under 1000 nM. On HBV core protein, the IC50 was under 100000 nM. The matching figures for `CCc1cccc2[nH]c(C(=O)N3CCc4nc(NCC5CCOC5)sc4C3)cc12` (centres unmarked) [Example 115, 5-(4-ethyl-1H-indole-2-carbonyl)-N-[(oxolan-3-yl)methyl]-4H,5H,6H,7H-[1,3]thiazolo[5,4-c]pyridin-2-amine]: under 1000 nM and under 5000 nM. The like results for `CC(O)CNc1nc2c(s1)CN(C(=O)c1cc3c(Cl)cc(F)cc3[nH]1)CC2` (centres unmarked) [Example 142, 1-{[5-(4-chloro-6-fluoro-1H-indole-2-carbonyl)-4H,5H,6H,7H-[1,3]thiazolo[5,4-c]pyridin-2-yl]amino}propan-2-ol] were, in that order, under 1000 nM and under 5000 nM. `COCCNc1nc2c(s1)CN(C(=O)c1cc3ccccc3[nH]1)CC2` [Example 97, 5-(1H-indole-2-carbonyl)-N-(2-methoxyethyl)-4H,5H,6H,7H-[1,3]thiazolo[5,4-c]pyridin-2-amine]: the EC50 in the assay with HBV is under 1000 nM. At HBV core protein, the IC50 was under 5000 nM. The matching figures for `O=C(c1cc2c(Cl)cc(F)cc2[nH]1)N1CCc2nc(NCC3(O)CCC3)sc2C1` [Example 313, 1-({[5-(4-chloro-6-fluoro-1H-indole-2-carbonyl)-4H,5H,6H,7H-[1,3]thiazolo[5,4-c]pyridin-2-yl]amino}methyl)cyclobutan-1-ol]: under 1000 nM and under 5000 nM. The like results for `Nc1nc2c(s1)CN(C(=O)c1cc3c(Cl)c(Cl)ccc3[nH]1)CC2` [Example 176, 5-(4,5-dichloro-1H-indole-2-carbonyl)-4H,5H,6H,7H-[1,3]thiazolo[5,4-c]pyridin-2-amine] were, in that order, 1000 to 10000 nM and 5000 to 10000 nM. The matching figures for `O=C(c1cc2ccccc2[nH]1)N1CCc2nc(NCCN3CCOCC3)sc2C1` [Example 36, 5-(1H-indole-2-carbonyl)-N-[2-(morpholin-4-yl)ethyl]-4H,5H,6H,7H-[1,3]thiazolo[5,4-c]pyridin-2-amine]: 1000 to 10000 nM and 5000 to 10000 nM. Consider `Cc1cc(F)cc2[nH]c(C(=O)N3CCc4nc(NC(=O)C5(C)CC5)sc4C3)cc12` [Example 307, N-[5-(6-fluoro-4-methyl-1H-indole-2-carbonyl)-4H,5H,6H,7H-[1,3]thiazolo[5,4-c]pyridin-2-yl]-1-methylcyclopropane-1-carboxamide], for which the EC50 in the assay on HBV is under 1000 nM. The same measure, in the same setting: the result for `O=C(c1cc2cc(F)c(Cl)cc2[nH]1)N1CCc2nc(NCC3(O)CCC3)sc2C1` [Example 373, 1-({[5-(6-chloro-5-fluoro-1H-indole-2-carbonyl)-4H,5H,6H,7H-[1,3]thiazolo[5,4-c]pyridin-2-yl]amino}methyl)cyclobutan-1-ol] reads under 1000 nM; that for `CC(C)CC(CO)CNc1nc2c(s1)CN(C(=O)c1cc3ccccc3[nH]1)CC2` (centres unmarked) [Example 287, 2-({[5-(1H-indole-2-carbonyl)-4H,5H,6H,7H-[1,3]thiazolo[5,4-c]pyridin-2-yl]amino}methyl)-4-methylpentan-1-ol], under 1000 nM. The same measure, in the same setting: in the case of `COCC1(Nc2nc3c(s2)CN(C(=O)c2cc4ccccc4[nH]2)CC3)CCC1` [Example 347, 5-(1H-indole-2-carbonyl)-N-[1-(methoxymethyl)cyclobutyl]-4H,5H,6H,7H-[1,3]thiazolo[5,4-c]pyridin-2-amine] it was under 1000 nM; in that of `O=C(c1cc2c(Cl)cc(F)cc2[nH]1)N1CCc2nc(N[C@H]3CC[C@@H](O)CC3)sc2C1` [Example 343, (1s,4s)-4-{[5-(4-chloro-6-fluoro-1H-indole-2-carbonyl)-4H,5H,6H,7H-[1,3]thiazolo[5,4-c]pyridin-2-yl]amino}cyclohexan-1-ol], under 1000 nM.

Take `O=C(c1cc2ccccc2[nH]1)N1CCc2nc(NCC3(C(=O)O)CC3)sc2C1` [Example 345, 1-({[5-(1H-indole-2-carbonyl)-4H,5H,6H,7H-[1,3]thiazolo[5,4-c]pyridin-2-yl]amino}methyl)cyclopropane-1-carboxylic acid]: in the assay on HBV, the EC50 lay in the range of 1000 to 10000 nM.

For the compound `O=C(c1cc2ccccc2[nH]1)N1CCc2nc(NCC(F)(F)C3CC3)sc2C1` [Example 436, N-(2-cyclopropyl-2,2-difluoroethyl)-5-(1H-indole-2-carbonyl)-4H,5H,6H,7H-[1,3]thiazolo[5,4-c]pyridin-2-amine], the EC50 in the assay with HBV is under 1000 nM. Same read-out and setting: the result for `O=C(c1cc2ccccc2[nH]1)N1CCc2nc(NCC3(O)CC(F)(F)C3)sc2C1` [Example 440, 3,3-difluoro-1-({[5-(1H-indole-2-carbonyl)-4H,5H,6H,7H-[1,3]thiazolo[5,4-c]pyridin-2-yl]amino}methyl)cyclobutan-1-ol] reads under 1000 nM.
